Experimental data from ChEMBL document CHEMBL4184094, “Spiro-1-benzofuranpiperidinylalkanoic acids as a novel and selective sphingosine S1P5 receptor agonist chemotype” (Bioorg Med Chem Lett, 2018).
pEC50: −log10 of the molar value. Values after ≈ are worked out from the molar mass of the structure shown.

Key:
[1] = target: Sphingosine 1-phosphate receptor 5 (Homo sapiens, UniProt Q9H228); experiment: Agonist activity at human S1P5 receptor expressed in CHO cells assessed as increase in calcium flux by aequorin-derived luminescence assay; format: functional, cell-based
Sphingosine 1-phosphate receptor 5, sequence (Q9H228 whole entry): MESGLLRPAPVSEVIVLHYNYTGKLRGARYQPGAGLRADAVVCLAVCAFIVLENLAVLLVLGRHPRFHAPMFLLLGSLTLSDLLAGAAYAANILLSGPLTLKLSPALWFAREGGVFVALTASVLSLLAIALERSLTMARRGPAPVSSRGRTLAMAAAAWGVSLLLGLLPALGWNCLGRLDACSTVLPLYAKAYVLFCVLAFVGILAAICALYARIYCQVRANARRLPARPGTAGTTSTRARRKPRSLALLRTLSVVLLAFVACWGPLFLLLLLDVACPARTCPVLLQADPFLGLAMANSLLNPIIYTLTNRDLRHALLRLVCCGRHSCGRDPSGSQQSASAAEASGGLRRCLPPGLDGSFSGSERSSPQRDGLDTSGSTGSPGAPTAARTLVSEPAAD

[2] = target: Sphingosine 1-phosphate receptor 1 (Homo sapiens, UniProt P21453); experiment: Agonist activity at human S1P1 receptor expressed in CHO cells assessed as increase in calcium flux by aequorin-derived luminescence assay; format: functional, cell-based
Sphingosine 1-phosphate receptor 1, sequence (P21453 whole entry): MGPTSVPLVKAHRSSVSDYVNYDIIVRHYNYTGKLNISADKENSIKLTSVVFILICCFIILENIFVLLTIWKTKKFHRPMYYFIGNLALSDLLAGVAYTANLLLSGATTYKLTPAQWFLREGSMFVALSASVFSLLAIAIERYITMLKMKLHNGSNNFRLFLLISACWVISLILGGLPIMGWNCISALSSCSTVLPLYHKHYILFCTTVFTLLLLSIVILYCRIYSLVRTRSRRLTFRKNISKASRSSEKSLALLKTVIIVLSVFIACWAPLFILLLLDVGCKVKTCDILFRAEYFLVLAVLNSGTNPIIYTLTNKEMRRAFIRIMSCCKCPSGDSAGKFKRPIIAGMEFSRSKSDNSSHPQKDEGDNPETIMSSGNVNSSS

[3] = target: Sphingosine 1-phosphate receptor 3 (Homo sapiens, UniProt Q99500); experiment: Agonist activity at human S1P3 receptor expressed in CHO cells assessed as increase in calcium flux by aequorin-derived luminescence assay; format: functional, cell-based
Sphingosine 1-phosphate receptor 3, sequence (Q99500 whole entry): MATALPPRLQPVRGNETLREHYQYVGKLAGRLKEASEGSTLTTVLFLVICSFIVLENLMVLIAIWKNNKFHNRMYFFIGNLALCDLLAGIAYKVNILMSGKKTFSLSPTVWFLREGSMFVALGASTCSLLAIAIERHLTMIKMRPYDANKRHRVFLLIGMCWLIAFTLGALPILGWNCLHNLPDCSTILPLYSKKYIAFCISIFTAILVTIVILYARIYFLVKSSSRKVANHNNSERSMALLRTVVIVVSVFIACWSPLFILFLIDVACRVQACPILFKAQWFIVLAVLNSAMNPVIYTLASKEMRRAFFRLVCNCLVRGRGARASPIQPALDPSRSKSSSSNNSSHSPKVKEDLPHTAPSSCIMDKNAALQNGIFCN

[4] = Aqueous kinetic solubility of the compound by turbidimetric method; format: physicochemical; conditions: buffer; read-out: Kinetic_solubility
[5] = Intrinsic clearance in human microsomes assessed per mg protein; format: ADME, Microsome
[6] = Half life in human microsomes assessed per mg protein; format: ADME, Microsome
[7] = organism: Homo sapiens; experiment: Selectivity ratio of EC50 for human S1P5 receptor expressed in CHO cells to EC50 for human S1P3 receptor expressed in CHO cells; format: cell-based
[8] = organism: Homo sapiens; experiment: Selectivity ratio of EC50 for human S1P5 receptor expressed in CHO cells to EC50 for human S1P1 receptor expressed in CHO cells; format: cell-based
[9] = Oral bioavailability in rat; format: ADME, organism-based; conditions: in vivo
[10] = Ratio of drug uptake in CNS to plasma in po dosed rat; format: ADME, organism-based; conditions: CNS and plasma

Structure (SMILES) | pEC50 [1] | pEC50 [2] | pEC50 [3] | solubility kinetic [4] [µM] | microsomal CLint [5] [µL/min/mg] | half-life [6] [h] | Ratio EC50 [7] | CL [5] [µL/min] | t1/2 [6] [h] | Ratio EC50 [8] | bioavailability [9] [%] | Kp [10]
CC(CN1CCC2(CC1)COc1cc(OCc3c(Cl)cccc3Cl)ccc12)C(=O)O (stereo unspecified) | 7.20 | 5.90 |  |  |  |  |  |  |  |  |  | 
O=C(O)CCN1CCC2(CC1)COc1cc(OCc3cccc(Cl)c3)ccc12 | 6.50 | < 5.00 | < 5.00 |  |  |  |  |  |  |  |  | 
CCc1cccc(Cl)c1COc1ccc2c(c1)OCC21CCN(CC(C)C(=O)O)CC1.Cl (stereo unspecified) | 7.80 | 6.50 | < 5.00 | ≥ 100 | 6.1 | 3.8 | 100 |  |  |  |  | 
O=C(O)CCN1CCC2(CC1)COc1cc(OCCCc3ccccc3)ccc12 | 5.70 | 5.30 | 5.80 |  |  |  |  |  |  |  |  | 
O=C(O)CN1CCC2(CC1)COc1cc(OCc3c(Cl)cccc3Cl)ccc12 | 7.50 | 5.20 | < 6.00 |  |  |  | 100 |  |  |  |  | 
O=C(O)CCN1CCC2(CC1)COc1cc(OCc3cc(Cl)ccc3Cl)ccc12 | 6.70 | 4.90 | 6.00 |  |  |  |  |  |  |  |  | 
Cl.O=C(O)CN1CCC2(CC1)COc1cc(S(=O)(=O)Cc3c(Cl)cccc3Cl)ccc12 | 6.10 | < 4.50 | < 5.00 | ≥ 100 |  |  |  | 33 | 2.15 |  |  | 
O=C(O)CCN1CCC2(CC1)COc1cc(OCc3ccccc3)ccc12 | 6.00 | < 4.50 | < 5.00 |  |  |  |  |  |  |  |  | 
O=C(O)C(F)(F)F.O=C(O)CCN1CCC2(CC1)COc1cc(OCc3ccccc3Cl)ccc12 | 6.90 |  | < 4.50 | 30 to 100 | 9.1 | 2.55 |  |  |  |  |  | 
CCc1cccc(CC)c1COc1ccc2c(c1)OCC21CCN(CCC(=O)O)CC1 | 7.70 | 5.80 | 5.80 | ≥ 100 | 0.92 | 25.2 |  |  |  |  |  | 
O=C(O)CCCN1CCC2(CC1)COc1cc(OCc3c(Cl)cccc3Cl)ccc12 | 7.80 | 5.30 | 5.90 |  |  |  |  |  |  |  |  | 
Cl.O=C(O)CCN1CCC2(CC1)COc1cc(SCc3c(Cl)cccc3Cl)ccc12 | 7.90 | < 5.00 | 5.40 | ≥ 100 | 21 | 1.08 | 100 |  |  | 1000 |  | 
O=C(O)CCN1CCC2(CC1)COc1cc(OCc3c(Cl)cccc3C(F)(F)F)ccc12 | 6.90 | 6.50 | < 5.00 |  |  |  |  |  |  |  |  | 
Cl.O=C(O)CCN1CCC2(CC1)COc1cc(C#Cc3ccccc3)ccc12 | 7.40 |  |  | 100 | 8.3 | 2.78 |  |  |  |  |  | 
Cl.O=C(O)CCN1CCC2(CC1)COc1cc(/C=C/c3c(Cl)cccc3Cl)ccc12 | 7.90 | < 4.50 |  | 30 to 100 | 0.76 | 30.3 |  |  |  |  | 73 | 0.8
Cl.O=C(O)CCN1CCC2(CC1)COc1c2ccc(OCc2c(Cl)cccc2Cl)c1F | 8.20 | 6.00 | < 5.00 | 30 to 100 | 6.5 | 3.55 | 1000 |  |  |  |  | 

Structure (SMILES) | pEC50 [1] | pEC50 [2] | pEC50 [3] | solubility kinetic [4] [µM] | microsomal CLint [5] [µL/min/mg] | half-life [6] [h] | Ratio EC50 [7] | CL [5] [µL/min] | t1/2 [6] [h] | Ratio EC50 [8] | bioavailability [9] [%] | Kp [10]
O=C(O)CCN1CCC2(CC1)COc1cc(OCc3c(Cl)cccc3OC(F)(F)F)ccc12 | 7.70 | 5.40 |  |  |  |  |  |  |  |  |  | 
CCc1cccc(Cl)c1COc1ccc2c(c1)OCC21CCN(CCC(=O)O)CC1 | 7.80 |  | < 5.00 |  |  |  | 100 |  |  |  |  | 
CC(C)c1cccc(Cl)c1COc1ccc2c(c1)OCC21CCN(CCC(=O)O)CC1.Cl | 7.60 | 5.90 | < 5.00 | 30 to 100 | 2.1 | 11.2 | 100 |  |  |  |  | 
CCc1cccc(Cl)c1COc1ccc2c(c1)OCC21CCCN(CCC(=O)O)C1.Cl (stereo unspecified) | 7.50 | < 4.50 | < 5.00 | ≥ 100 | 3.4 | 6.82 | 100 |  |  | 1000 |  | 
O=C(O)CCN1CCC2(CC1)COc1cc(OCc3cccc(Cl)c3Cl)ccc12 | 6.70 | 5.80 | < 5.00 |  |  |  |  |  |  |  |  | 
O=P(O)(O)OCCN1CCC2(CC1)COc1cc(OCc3c(Cl)cccc3Cl)ccc12 | 7.70 | 6.60 | < 5.00 |  |  |  | 100 |  |  |  |  | 
CCCCCCCCc1ccc(CCC(N)(CO)CO)cc1 [FINGOLIMOD] | 5.50 |  | 5.60 | 1 to 6.5 (≈ 0.307 to 2 µg/mL) |  |  |  |  |  |  |  | 
Cl.O=C(O)CCN1CCCC2(COc3cc(OCc4c(Cl)cccc4Cl)ccc32)C1 (stereo unspecified) | 7.00 |  |  | ≥ 100 | 3.1 | 7.57 | 100 |  |  |  |  | 
O=C(O)CCN1CCC2(CC1)COc1cc(C#Cc3ccccc3Cl)ccc12 | 7.60 | < 4.50 | < 5.00 |  |  |  | 100 |  |  | 1000 |  | 
CCCc1cccc(Cl)c1COc1ccc2c(c1)OCC21CCN(CCC(=O)O)CC1 | 7.80 | 5.70 | 5.70 |  |  |  | 100 |  |  |  |  | 
Cl.O=C(O)CCN1CCC2(CC1)COc1cc(OCc3c(F)cccc3Cl)ccc12 | 7.20 | 5.20 |  | 30 to 100 | 2.7 | 8.42 | 100 |  |  |  |  | 
CCc1cccc(Cl)c1CSc1ccc2c(c1)OCC21CCN(CCC(=O)O)CC1.Cl | 8.60 | 6.90 | < 6.00 | 30 to 100 | 42 | 0.55 | 100 |  |  |  |  | 
Cl.O=C(O)CCN1CCC2(CC1)COc1cc(OCc3c(Cl)cccc3Cl)ccc12 | 6.80 | 5.20 | < 5.00 | ≥ 100 | 3.1 | 7.45 |  |  |  |  |  | 0.2
Cl.O=C(O)CCN1CCC2(CC1)COc1cc(OCc3cc(Cl)nc(Cl)c3)ccc12 | 6.50 | < 4.50 | < 5.00 | > 100 | 13.9 | 1.67 |  |  |  |  |  | 
Cc1cc(Cl)c(COc2ccc3c(c2)OCC32CCN(CCC(=O)O)CC2)c(Cl)c1 | 8.10 | 6.50 |  |  |  |  |  |  |  |  |  | 
